Measured values reported in PMC3814616, “BRAF inhibitors suppress apoptosis through off-target inhibition of JNK signaling” (eLife, 2013).

How the values were obtained:
[1] = target: T1, MAP4K2 (Homo sapiens, UniProt Q12851); assay: Quantitative competitive binding assay (KINOMEscan); conditions: for remaining binding at 0.05 µM: read-out: Percent control (50 nM); for remaining binding at 0.2 µM: read-out: Percent control (200 nM); for remaining binding at 1 µM: read-out: Percent control (1000 nM); for remaining binding at 10 µM: read-out: Percent control (10 μM)
T1 construct: purchased KINOMEscan (DiscoveRx), San Diego, CA
T1 sequence (Q12851 1-820): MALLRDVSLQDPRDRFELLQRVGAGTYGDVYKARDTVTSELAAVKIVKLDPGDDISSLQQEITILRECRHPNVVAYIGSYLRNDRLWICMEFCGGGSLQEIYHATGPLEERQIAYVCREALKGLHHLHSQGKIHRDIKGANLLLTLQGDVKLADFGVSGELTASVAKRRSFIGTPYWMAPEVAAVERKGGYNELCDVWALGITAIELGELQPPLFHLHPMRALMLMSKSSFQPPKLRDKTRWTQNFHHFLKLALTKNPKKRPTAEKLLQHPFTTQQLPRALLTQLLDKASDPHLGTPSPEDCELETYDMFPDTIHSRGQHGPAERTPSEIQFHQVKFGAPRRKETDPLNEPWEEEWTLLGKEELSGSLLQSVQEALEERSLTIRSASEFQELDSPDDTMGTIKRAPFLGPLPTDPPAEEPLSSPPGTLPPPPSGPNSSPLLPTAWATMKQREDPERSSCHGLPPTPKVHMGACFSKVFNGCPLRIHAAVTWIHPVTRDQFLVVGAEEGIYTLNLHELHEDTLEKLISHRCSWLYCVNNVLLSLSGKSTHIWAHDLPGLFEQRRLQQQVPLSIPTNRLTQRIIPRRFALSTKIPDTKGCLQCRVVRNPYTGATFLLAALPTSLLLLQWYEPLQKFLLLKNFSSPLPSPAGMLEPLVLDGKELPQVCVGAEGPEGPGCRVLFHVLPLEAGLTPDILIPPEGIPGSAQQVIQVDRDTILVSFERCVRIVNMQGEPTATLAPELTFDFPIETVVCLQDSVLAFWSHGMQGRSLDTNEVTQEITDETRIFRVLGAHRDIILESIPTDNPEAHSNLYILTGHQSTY

[2] = target: T2, ZAK (Homo sapiens, UniProt Q9NYL2); assay: as above; conditions: for remaining binding at 0.05 µM: read-out: Percent control (50 nM); for remaining binding at 0.2 µM: read-out: Percent control (200 nM); for remaining binding at 1 µM: read-out: Percent control (1000 nM); for remaining binding at 10 µM: read-out: Percent control (10 μM)
T2 construct: purchased KINOMEscan (DiscoveRx), San Diego, CA
T2 sequence (Q9NYL2 whole entry): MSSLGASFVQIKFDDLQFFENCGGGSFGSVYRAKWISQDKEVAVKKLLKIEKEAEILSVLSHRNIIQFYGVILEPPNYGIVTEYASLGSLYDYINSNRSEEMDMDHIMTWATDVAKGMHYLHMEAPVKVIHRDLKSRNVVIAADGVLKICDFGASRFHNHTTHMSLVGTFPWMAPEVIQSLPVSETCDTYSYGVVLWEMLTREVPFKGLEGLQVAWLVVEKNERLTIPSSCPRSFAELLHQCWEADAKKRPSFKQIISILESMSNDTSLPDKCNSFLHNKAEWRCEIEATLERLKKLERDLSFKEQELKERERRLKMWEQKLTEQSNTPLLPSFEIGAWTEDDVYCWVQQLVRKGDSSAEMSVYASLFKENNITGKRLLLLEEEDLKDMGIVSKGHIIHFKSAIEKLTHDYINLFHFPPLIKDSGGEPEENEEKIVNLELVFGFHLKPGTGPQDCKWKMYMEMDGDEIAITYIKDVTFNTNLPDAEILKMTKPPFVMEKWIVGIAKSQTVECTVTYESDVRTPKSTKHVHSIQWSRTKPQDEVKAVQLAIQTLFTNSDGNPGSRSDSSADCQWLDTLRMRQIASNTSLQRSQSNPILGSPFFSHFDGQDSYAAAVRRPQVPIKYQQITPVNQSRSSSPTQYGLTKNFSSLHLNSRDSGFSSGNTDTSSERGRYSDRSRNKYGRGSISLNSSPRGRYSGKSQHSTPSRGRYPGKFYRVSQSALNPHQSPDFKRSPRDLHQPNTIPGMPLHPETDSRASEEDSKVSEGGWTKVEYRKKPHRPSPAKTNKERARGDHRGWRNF

[3] = target: T3, MST1 (STK4) (Homo sapiens, UniProt Q13043); assay: as above; conditions: for remaining binding at 0.05 µM: read-out: Percent control (50 nM); for remaining binding at 0.2 µM: read-out: Percent control (200 nM); for remaining binding at 1 µM: read-out: Percent control (1000 nM); for remaining binding at 10 µM: read-out: Percent control (10 μM)
T3 construct: purchased KINOMEscan (DiscoveRx), San Diego, CA
T3 sequence (Q13043 1-487): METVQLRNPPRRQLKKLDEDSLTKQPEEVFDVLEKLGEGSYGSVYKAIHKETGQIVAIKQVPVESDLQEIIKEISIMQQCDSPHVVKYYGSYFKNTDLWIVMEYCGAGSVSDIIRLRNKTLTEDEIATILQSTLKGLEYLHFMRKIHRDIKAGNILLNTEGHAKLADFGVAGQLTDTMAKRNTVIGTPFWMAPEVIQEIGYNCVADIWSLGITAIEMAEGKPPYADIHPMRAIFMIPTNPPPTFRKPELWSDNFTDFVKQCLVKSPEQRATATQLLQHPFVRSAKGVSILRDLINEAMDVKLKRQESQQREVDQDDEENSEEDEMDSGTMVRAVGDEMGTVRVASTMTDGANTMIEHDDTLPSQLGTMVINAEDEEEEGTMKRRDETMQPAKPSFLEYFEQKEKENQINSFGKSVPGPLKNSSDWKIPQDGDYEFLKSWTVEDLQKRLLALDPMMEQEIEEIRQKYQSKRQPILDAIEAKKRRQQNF

[4] = target: T4, LZK (MAP3K13) (Homo sapiens, UniProt O43283); assay: as above; conditions: for remaining binding at 0.05 µM: read-out: Percent control (50 nM); for remaining binding at 0.2 µM: read-out: Percent control (200 nM); for remaining binding at 1 µM: read-out: Percent control (1000 nM); for remaining binding at 10 µM: read-out: Percent control (10 μM)
T4 construct: purchased KINOMEscan (DiscoveRx), San Diego, CA
T4 sequence (O43283 1-966): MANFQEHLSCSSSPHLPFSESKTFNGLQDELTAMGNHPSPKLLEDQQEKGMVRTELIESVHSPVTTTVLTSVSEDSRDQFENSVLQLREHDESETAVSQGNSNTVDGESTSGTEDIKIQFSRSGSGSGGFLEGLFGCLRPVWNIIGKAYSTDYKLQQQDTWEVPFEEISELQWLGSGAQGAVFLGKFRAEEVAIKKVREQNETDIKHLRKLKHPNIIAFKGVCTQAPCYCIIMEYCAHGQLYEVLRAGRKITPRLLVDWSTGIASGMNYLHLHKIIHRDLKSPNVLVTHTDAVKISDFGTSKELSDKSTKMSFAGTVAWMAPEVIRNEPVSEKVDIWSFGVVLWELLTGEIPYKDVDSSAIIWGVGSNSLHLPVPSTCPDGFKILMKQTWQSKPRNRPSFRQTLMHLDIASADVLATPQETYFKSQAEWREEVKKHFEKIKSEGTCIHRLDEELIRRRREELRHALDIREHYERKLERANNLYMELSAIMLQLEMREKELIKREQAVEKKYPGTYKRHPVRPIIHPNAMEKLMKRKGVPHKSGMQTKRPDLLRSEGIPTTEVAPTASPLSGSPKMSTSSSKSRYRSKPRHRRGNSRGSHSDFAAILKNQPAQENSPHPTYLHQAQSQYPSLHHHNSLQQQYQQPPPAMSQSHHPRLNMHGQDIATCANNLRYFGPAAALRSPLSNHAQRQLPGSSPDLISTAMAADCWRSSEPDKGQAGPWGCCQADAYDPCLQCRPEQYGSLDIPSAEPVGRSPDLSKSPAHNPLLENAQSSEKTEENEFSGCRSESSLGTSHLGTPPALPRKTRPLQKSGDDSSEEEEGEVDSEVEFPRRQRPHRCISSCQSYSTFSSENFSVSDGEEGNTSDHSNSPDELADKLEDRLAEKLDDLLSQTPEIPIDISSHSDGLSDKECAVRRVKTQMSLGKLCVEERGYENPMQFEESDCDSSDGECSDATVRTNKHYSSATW

[5] = target: SRMS (Homo sapiens, UniProt Q9H3Y6); assay: as above; conditions: for IC50: estimated Kd, averaged pointwise estimates, transformed Hill equation, read-out: Calculated estimate of IC50; for remaining binding at 0.05 µM: read-out: Percent control (50 nM); for remaining binding at 0.2 µM: read-out: Percent control (200 nM); for remaining binding at 1 µM: read-out: Percent control (1000 nM); for remaining binding at 10 µM: read-out: Percent control (10 μM)
Chain of SRMS (Q9H3Y6 whole entry): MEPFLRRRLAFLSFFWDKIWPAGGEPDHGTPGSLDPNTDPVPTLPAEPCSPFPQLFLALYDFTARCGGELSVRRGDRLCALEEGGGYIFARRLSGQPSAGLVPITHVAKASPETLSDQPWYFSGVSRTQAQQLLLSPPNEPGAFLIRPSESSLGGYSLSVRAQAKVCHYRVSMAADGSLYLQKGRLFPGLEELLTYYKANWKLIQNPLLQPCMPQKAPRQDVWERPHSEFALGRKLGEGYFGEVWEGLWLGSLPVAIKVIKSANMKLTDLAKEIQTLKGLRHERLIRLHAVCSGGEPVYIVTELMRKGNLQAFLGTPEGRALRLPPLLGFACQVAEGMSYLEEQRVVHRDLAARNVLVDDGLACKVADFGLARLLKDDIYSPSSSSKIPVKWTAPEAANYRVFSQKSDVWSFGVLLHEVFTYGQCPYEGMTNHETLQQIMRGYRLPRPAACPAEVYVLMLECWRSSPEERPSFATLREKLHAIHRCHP

[6] = target: BRK (PTK6) (Homo sapiens, UniProt Q13882); assay: as above; conditions: for IC50: estimated Kd, averaged pointwise estimates, transformed Hill equation, read-out: Calculated estimate of IC50; for remaining binding at 0.05 µM: read-out: Percent control (50 nM); for remaining binding at 0.2 µM: read-out: Percent control (200 nM); for remaining binding at 1 µM: read-out: Percent control (1000 nM); for remaining binding at 10 µM: read-out: Percent control (10 μM)
Chain of BRK (PTK6) (Q13882 whole entry): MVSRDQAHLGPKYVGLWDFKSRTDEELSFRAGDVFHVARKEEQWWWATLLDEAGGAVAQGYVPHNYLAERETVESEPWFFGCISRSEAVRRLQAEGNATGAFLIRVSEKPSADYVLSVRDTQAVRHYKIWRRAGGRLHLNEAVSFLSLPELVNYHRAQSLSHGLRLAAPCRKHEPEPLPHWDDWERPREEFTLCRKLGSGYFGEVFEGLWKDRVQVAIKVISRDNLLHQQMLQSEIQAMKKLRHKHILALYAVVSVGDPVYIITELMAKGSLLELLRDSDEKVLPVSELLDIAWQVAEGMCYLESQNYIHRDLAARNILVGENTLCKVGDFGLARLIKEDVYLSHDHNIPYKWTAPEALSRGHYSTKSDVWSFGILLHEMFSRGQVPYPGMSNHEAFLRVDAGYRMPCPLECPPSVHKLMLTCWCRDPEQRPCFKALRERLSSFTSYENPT

[7] = system: phospho-MKK4 and phospho-MKK7; assay: Western blot, UV-induced phosphorylation of MKK4 and MKK7; conditions: cSCC cell lines, HaCaT, NHEK; 1 μM
[8] = estimated Kd, averaged pointwise estimates, transformed Hill equation, read-out: Calculated estimate of IC50

| Structure (SMILES) | remaining binding at 0.05 µM [1] | remaining binding at 0.2 µM [1] | remaining binding at 1 µM [1] | remaining binding at 10 µM [1] | remaining binding at 0.05 µM [2] | remaining binding at 0.2 µM [2] | remaining binding at 1 µM [2] | remaining binding at 10 µM [2] | remaining binding at 0.05 µM [3] | remaining binding at 0.2 µM [3] | remaining binding at 1 µM [3] | remaining binding at 10 µM [3] | remaining binding at 0.05 µM [4] | remaining binding at 0.2 µM [4] | remaining binding at 1 µM [4] | remaining binding at 10 µM [4] | IC50 [5] | remaining binding at 0.05 µM [5] | remaining binding at 0.2 µM [5] | remaining binding at 1 µM [5] | further results |
| --- | --- | --- | --- | --- | --- | --- | --- | --- | --- | --- | --- | --- | --- | --- | --- | --- | --- | --- | --- | --- | --- |
| CCCS(=O)(=O)Nc1ccc(F)c(C(=O)c2c[nH]c3ncc(Cl)cc23)c1F [PLX4720] | 98% | 100% | 99% | 67% | 20% | 4% | 0.7% | 0.1% | 100% | 93% | 84% | 55% | 94% | 100% | 96% | 75% | 0.64 nM | 1.9% | 0.55% | 0.05% | IC50 [3, 8]: 6710 nM; remaining binding at 10 µM [5]: 0%; IC50 [6]: 30.4 nM; remaining binding at 0.05 µM [6]: 47%; remaining binding at 0.2 µM [6]: 14%; remaining binding at 1 µM [6]: 2.4%; remaining binding at 10 µM [6]: 0.2%; UV-induced phosphorylation of MKK4 and MKK7 [7]: inhibited |
| CCCS(=O)(=O)Nc1ccc(F)c(C(=O)c2c[nH]c3ncc(-c4ccc(Cl)cc4)cc23)c1F [vemurafenib] | 99% | 82% | 95% | 46% | 9% | 1.8% | 0.25% | 0.05% | 99% | 83% | 51% | 12% | 100% | 99% | 93% | 74% | 11.1 nM | 24% | 9.6% | 0.75% | IC50 [2, 8]: < 50 nM; remaining binding at 10 µM [5]: 0%; IC50 [6]: 68 nM; remaining binding at 0.05 µM [6]: 63%; remaining binding at 0.2 µM [6]: 28%; remaining binding at 1 µM [6]: 6.9%; remaining binding at 10 µM [6]: 0.35%; UV-induced phosphorylation of MKK4 and MKK7 [7]: suppressed |
